Data on 13 compounds can be found in PMC10375533, “Preference of Bacterial Rhamnosyltransferases for 6-Deoxysugars Reveals a Strategy To Deplete O-Antigens” (Journal of the American Chemical Society, 2023).

“Also recorded” adds a separate entry of the source. Read-outs that look alike come from different tables or passages of the source.

Test [1] concerns the target T. thermophilus RfbF (Thermus thermophilus, UniProt Q72KB9). Put plainly: Isothermal titration calorimetry (ITC) binding measurements with RfbF. The following applies: for ΔG / ΔH / ΔS / KD / binding to RfbF by ITC (in words) / Kd / n-value (stoichiometry): ITC; for fold increase in KD relative to dTDP-β-L-Rha: ITC with RfbF, compared to the native donor; for n-value (stoichiometry): ligands with sigmoidal binding curves, SD in parentheses, n = 3.

The target of test [2] is T1, E. coli WbbL (Escherichia coli, UniProt P36667). Put plainly: In vitro inhibition assay of E. coli WbbL with monosaccharides and compound 2. The following applies: 5 mM inhibitor, 250 µM dTDP-β-L-Rha, 1 mM GlcNAc-PP-undecaprenol, 8 min. The format is biochemical. The method, then: Primers were purchased from Invitrogen and sequencing was completed by GENEWIZ (Azenta) or EtonBio. Chemicals were purchased from Sigma Aldrich, CarboSynth, Fisher Scientific, and Cayman without further purification. 1H, 13C, and 31P NMR spectra were recorded on a Bruker Avance III 400, 500, or 600 MHz instrument. All spectra were calibrated using residual non-deuterated solvent as an internal reference and processed using MestReNova (authorized to NYU). Gel filtration purification and analyses was performing using at AKTA pure 15 L instrument (UNICORN™ software, GE Healthcare). HRMS analyses were acquired on an Agilent 6224 Accurate-Mass time-of-flight LC/MS (LC-TOF) spectrometer equipped with an electrospray ionization (ESI) source with an autosampler. GraphPad Prism software 9.0 was used for all plotting and data analysis unless otherwise noted. Statistical significance of grouped data was assessed using paired t-tests in Prism. For the IC50 calculation, data were fit in Prism using the equation log(inhibitor) versus response (three parameters): y = bottom + (top-bottom)/(1+10^(X-log IC50)) based on the assumption the Hill slope would be 1, as predicted by ITC results with n ~ 1 for donor ligands. Data was normalized to controls without enzyme and with no inhibitor added. Confidence intervals were calculated based on the standard error. 1M TEAB buffer was prepared by suspending triethylamine (1 mol, 139 mL) in water (700 mL) and passing carbon dioxide (from evaporated dry ice) through the mixture until the pH=7.5. The buffer was diluted to 1L and stored as a stock solution at 4 °C. Prior to use it was diluted to 50 mM in deionized H2O […]
T1 sequence (P36667 whole entry, looked up): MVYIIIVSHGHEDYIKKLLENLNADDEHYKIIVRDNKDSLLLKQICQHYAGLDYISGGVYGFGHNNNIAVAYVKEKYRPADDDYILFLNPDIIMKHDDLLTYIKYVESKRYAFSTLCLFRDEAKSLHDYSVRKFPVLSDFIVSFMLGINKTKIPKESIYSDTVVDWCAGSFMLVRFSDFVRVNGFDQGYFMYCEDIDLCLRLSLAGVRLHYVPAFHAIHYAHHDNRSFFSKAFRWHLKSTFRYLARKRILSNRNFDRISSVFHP
Methods for protein and cellular biochemistry/bioinformatics used in this study.
Bioinformatic approach to identify Thermus thermophilus RfbF as a putative glycolipid RT.
The Carbohydrate-Active Enzymes Database (CAZy.org) was used to identify thermophilic organisms with annotated glycosyltransferases (GTs).11-12 Genes annotated as wbbL have been experimentally shown to encode dTDP-rhamnosyltransferases that transfer L-Rha onto N-acetyl--a-D-glucosamine-1-diphospholipid acceptors.13-14 In Shigella flexneri, the protein encoded by rfbF was noted to carry out the same biochemical activity as WbbL based on genetic and LPS analyses.15-16 Both E. coli WbbL and S. flexneri RfbF belong to the GT2 family. A CAZy search for rfbF and wbbL was performed in the genomes of Gram-negative extreme thermophiles, which […]
(GenBank: AAS80876.1), which had not yet been biochemically characterized. Protein ANalysis […]
(§1) thermodynamic values were evaluated using ITCRun software (TA Instruments) and fit with a […]
Specific activities were determined by modification of the protocol outlined by Li et al. […]

Test [3] addresses T1, E. coli WbbL. Put plainly: Specific activity assay of rhamnosyltransferase (HPLC, rSAP-coupled), E. coli WbbL membrane fraction. The format is biochemical. The following applies: native donor dTDP-β-L-Rha, t = 1 h. The method, then: as §1
Specific activity assays for bacterial rhamnosyltransferases from different species.
Specific activities were determined by modification of the protocol outlined by Li et al.
Specifically, 0.155 mg/mL RfbF, 0.081 mg/mL E. coli WbbL, or 0.111 mg/mL Mtb WbbL were used to initiate the following reaction mixtures: 25 mM Tris-HCl pH 7.5, 1 mM GlcNAc-PP-lipid, 1 mM donor-substrate, 5 mM MgCl2, 1 U rSAP (1000 U/mL stock solution), 1% (v/v) Triton X-100, 5% (v/v) DMSO (for reactions containing C55, C20, C15 lipid) or MeOH (for reactions containing C35 lipid) in a total volume of 20 µL. […]
Consumption of NDP-sugar donors was monitored on reverse phase HPLC equipped with a Phenomenex 5 µm, 21.2 x 150 mm, NX-C18 Å Gemini column with solvent A (50 mM TEAB pH 8.0) and solvent B (acetonitrile) using the following linear gradient: 0% B (t = 0-5 min), 0-5% B (t = 5-25 min), 5-90% B (t = 25-35 min). Absorbance at wavelength (l) = 254 nm was monitored.
Consumption was quantified by integration of dTDP-sugar donors relative to the total amount of thymidine-containing products, which was then subtracted from the starting dTDP-sugar concentration at the t = 0 time point. […] Characterization of each reaction was monitored by scanning in the negative ion mode and analyzed using Agilent MassHunter […]

[4] abbreviates: 25 °C, ligand titrated into 110 µM RfbF.
Setting [5] is: 25 °C, ligand titrated into 110 µM RfbF, one-site model, spread = SD, triplicate.
The mark [6] stands for this setting: ligand titrated into 110 µM RfbF.
Setting [7] is: KD, 25 °C, ligand titrated into 110 µM RfbF, one-site model, spread = SD, triplicate.

Chain of T. thermophilus RfbF (Q72KB9 entry or part of it): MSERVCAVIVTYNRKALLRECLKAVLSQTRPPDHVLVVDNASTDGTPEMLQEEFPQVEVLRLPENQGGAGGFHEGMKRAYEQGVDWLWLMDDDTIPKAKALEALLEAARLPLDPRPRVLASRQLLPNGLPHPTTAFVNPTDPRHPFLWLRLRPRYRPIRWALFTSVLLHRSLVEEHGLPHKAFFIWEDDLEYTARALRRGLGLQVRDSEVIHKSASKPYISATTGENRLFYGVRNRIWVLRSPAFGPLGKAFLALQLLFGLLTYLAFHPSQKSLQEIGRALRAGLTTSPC

On to `CC1OC(OP(=O)(O)OP(=O)(O)OCC2OC(n3cnc4c(=O)[nH]c(N)nc43)C(O)C2O)C(O)C(O)C1O` [GDP-β-L-Rha, GDP-β-L-rhamnose], for which, in test [1] (setting [4]), the ΔG result is on record as “N/B”, the ΔH result was “N/B” and the ΔS entry is recorded as “N/B”. The KD result in test [1] (setting [5]) is given as “N/B”. Also, the “binding to RfbF by ITC (in words)” value in test [1] (setting [6]) is recorded as “no measurable; also recorded: no binding”.
On to `OC[C@@H]1OC(O)[C@H](O)[C@H](O)[C@H]1O` (stereo partly drawn) [L-Man, L-Mannose, reference compound], for which the “inhibition of E. coli WbbL” value in test [2] is recorded as “Lack of inhibition”.
For `CC1OC(OP(=O)(O)O)C(O)C(O)C1O` [L-Rha-1-phosphate, L-Rhamnose-1-phosphate, reference compound], the Kd in test [1] (5-10 mM ligand titrated into 110 µM RfbF, read-out: KD (beyond measurable limit)) is greater than 1000 µM.
On to `N[C@@H](CO)C(=O)O` [Ser], for which, in test [3], the “turnover as noncanonical acceptor with the native donor” value is on record as “no turnover”.
With `CC(=O)NC1C(OP(=O)(O)OP(=O)(O)OCC2OC(n3ccc(=O)[nH]c3=O)C(O)C2O)OC(CO)C(O)C1O` [UDP-α-D-GlcNAc, UDP-a-N-acetyl-D-glucosamine, reference compound], in test [1] (setting [4]), the ΔG result is “N/B”, the ΔH result is “N/B” and the ΔS entry is listed as “N/B”. Further, the KD result in test [1] (setting [5]) is listed as “N/B”. The “binding to RfbF by ITC (in words)” value in test [1] (ligand titrated into 110 µM RfbF, listed as UDP-a-D-GlcNAc) is “no”. For the same compound, the “binding to RfbF by ITC (in words)” value in test [1] (ligand titrated into 110 µM RfbF, listed as UDP-α-GlcNAc) was “did not bind at μM concentrations”. In test [3] (listed as UDP-α-GlcNAc), the “turnover as noncanonical acceptor with the native donor” value was “no turnover; also recorded: not used as an acceptor”.
Turning to `CC1OC(OP(=O)(O)OP(=O)(O)OCC2OC(n3ccc(=O)[nH]c3=O)C(O)C2O)C(O)C(O)C1O` [UDP-β-L-Rha, UDP-β-L-rhamnose], in test [1], the “fold increase in KD relative to dTDP-β-L-Rha” value is given as roughly 4.5 fold and the “n-value (stoichiometry)” value is 1.30 (0.28). For the same compound, in test [1] (setting [4]), the ΔG is reported as 8.55 (3.65) kcal/mol, the ΔH is on record as -6.72 (1.01) kcal/mol and the ΔS is on record as -51.2 (14.7) cal/mol·K. This compound also yielded a Kd in test [1] (setting [7]) of 36.1 ± 10.7 µM.
Regarding `Cc1cn([C@H]2C[C@H](O)[C@@H](COP(=O)(O)OP(=O)(O)O)O2)c(=O)[nH]c1=O` [dTDP, reference compound], the “binding to RfbF by ITC (in words)” value in test [1] (setting [6]) is recorded as “no binding profile is observed; also recorded: did not bind”.
As to `Cc1cn(C2CC(O)C(COP(=O)(O)OP(=O)(O)OC3OC(CO)C(O)C(O)C3O)O2)c(=O)[nH]c1=O` [dTDP-α-D-Glc, dTDP-a-D-glucose, reference compound], the “fold increase in KD relative to dTDP-β-L-Rha” value in test [1] (listed as dTDP-α-Glc) was roughly 75 fold. The compound further displayed a Kd in test [1] (setting [7]) of 637 ± 96 µM.
Take `Cc1cn(C2CC(O)C(COP(=O)(O)OP(=O)(O)OC3OC(C)C(O)C(O)C3O)O2)c(=O)[nH]c1=O` [dTDP-α-L-Rha, dTDP-a-L-rhamnose]: in test [1] (setting [4]), the ΔG result is recorded as “N/B”, the ΔH result is “N/B” and the ΔS entry was “N/B”. Besides, in test [1] (setting [5]), the KD result is “N/B”. For the same compound, the “binding to RfbF by ITC (in words)” value in test [1] (setting [6]) is “no detectable binding”. Besides, the “binding to RfbF by ITC (in words)” value in test [1] (ligand titrated into 110 µM RfbF, listed as dTDP-a-L-Rha) was “no measurable”.
`Cc1cn(C2CC(O)C(COP(=O)(O)OP(=O)(O)OC3OC(C)C(O)C(O)C3O)O2)c(=O)[nH]c1=O` [dTDP-β-L-6dTal, dTDP-6-deoxy-β-L-talose]: in test [1] (setting [4]), the ΔG is 0.415 (2.847) kcal/mol, the ΔH is -8.17 (2.70) kcal/mol and the ΔS is given as -28.8 (3.7) cal/mol·K. The “binding to RfbF by ITC (in words)” value in test [1] (setting [6]) is recorded as “comparable affinity as the native substrate”. Besides, the “n-value (stoichiometry)” value in test [1] is on record as 0.934 (0.028). Also, the Kd in test [1] (setting [7]) is 16.5 µM.
In the case of `Cc1cn(C2CC(O)C(COP(=O)(O)OP(=O)(O)OC3OC(C)C(O)C(O)C3O)O2)c(=O)[nH]c1=O` [dTDP-β-L-Fuc, dTDP-β-L-fucose], the “fold increase in KD relative to dTDP-β-L-Rha” value in test [1] is recorded as roughly 15 fold. In addition, in test [1] (setting [7]), the Kd turned out to be 126 ± 1 µM.
For `Cc1cn(C2CC(O)C(COP(=O)(O)OP(=O)(O)OC3OC(CO)C(O)C(O)C3O)O2)c(=O)[nH]c1=O` [dTDP-β-L-Man, dTDP-β-L-mannose], in test [1], the “fold increase in KD relative to dTDP-β-L-Rha” value turned out to be 60 fold. This compound also yielded a Kd in test [1] (setting [7]) of 496 ± 56 µM.
In the case of L-rhamnose [reference compound], the “inhibition of E. coli WbbL” value in test [2] is 38%.
